In US20150346214A1, “DETECTION OF MEMBRANE PROTEINS” (priority 2012, published 2015):
Entries after “also recorded” stand apart in the source; their conditions may differ.

Molecular target: T1, mechanosensitive channel of large conductance (MscL) (Mycobacterium tuberculosis, UniProt P9WJN5)
T1 sequence (P9WJN5 1-151): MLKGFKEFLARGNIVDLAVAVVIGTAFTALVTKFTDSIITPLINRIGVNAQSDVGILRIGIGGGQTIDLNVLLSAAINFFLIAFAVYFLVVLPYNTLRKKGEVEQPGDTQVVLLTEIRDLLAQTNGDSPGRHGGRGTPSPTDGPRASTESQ
Experiment: Gas-phase (collision-induced) unfolding IM-MS: stabilisation of MscL by bound phospholipid
Type: binding
Conditions: +12 charge state, versus apo form

With CCCCCCCC/C=C\CCCCCCCC(=O)OC[C@H](COP(=O)(O)O[C@H]1C(O)C(O)C(O)[C@@H](OP(=O)(O)O)C1O)OC(=O)CCCCCCC/C=C\CCCCCCCC (stereo partly shown) [PI] the “average stabilisation of MscL by bound phospholipid (resistance to gas-phase unfolding)” value was “large increase in stability when binding multiple lipids, greater than all other phospholipids investigated; also recorded: Major cumulative effects on stability”.
